Results as given in ChEMBL document CHEMBL1201862, “PubChem BioAssay data set” (2004).
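Results reflect a 48-hour exposure of cells in 96-well plates to compound at five concentrations. Here, GI50 denotes the concentration required for 50% inhibition of growth.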 Active and inactive are the calls of the source. No stated cut-off is given here; in the data, active = GI50 up to about 1.1 µM and inactive = higher.

Key:
Assay in all cases: NCI anticancer screen, dose series, 48 h
Malme-3M = tested on: Malme-3M
IGROV-1 = tested on: IGROV-1
OVCAR-8 = tested on: OVCAR-8
OVCAR-4 = tested on: OVCAR-4
PC-3 = tested on: PC-3
HOP-92 = tested on: HOP-92
EKVX = tested on: EKVX
786-0 = tested on: 786-0
BT-549 = tested on: BT-549
SK-MEL-28 = tested on: SK-MEL-28
DU-145 = tested on: DU-145
NCI/ADR-RES = tested on: NCI/ADR-RES
A549 = tested on: A549
HT-29 = tested on: HT-29
HCC 2998 = tested on: HCC 2998
SN12C = tested on: SN12C
NCI-H226 = tested on: NCI-H226
SF-268 = tested on: SF-268
OVCAR-3 = tested on: OVCAR-3
NCI-H23 = tested on: NCI-H23
RXF 393 = tested on: RXF 393
A498 = tested on: A498
UO-31 = tested on: UO-31
KM12 = tested on: KM12
NCI-H522 = tested on: NCI-H522
SF-295 = tested on: SF-295
RPMI-8226 = tested on: RPMI-8226
COLO 205 = tested on: COLO 205
K562 = tested on: K562
SW-620 = tested on: SW-620
MDA-MB-231 = tested on: MDA-MB-231
SK-MEL-5 = tested on: SK-MEL-5
OVCAR-5 = tested on: OVCAR-5
SNB-75 = tested on: SNB-75
TK-10 = tested on: TK-10
MDA-MB-435 = tested on: MDA-MB-435
U-251 = tested on: U-251
SNB-19 = tested on: SNB-19
CAKI-1 = tested on: CAKI-1
SK-MEL-2 = tested on: SK-MEL-2
HCT-116 = tested on: HCT-116
Hs-578T = tested on: Hs-578T
SK-OV-3 = tested on: SK-OV-3
HOP-62 = tested on: HOP-62
UACC-257 = tested on: UACC-257
ACHN = tested on: ACHN
M14 = tested on: M14
UACC-62 = tested on: UACC-62
HL-60 = tested on: HL-60
MDA-N = tested on: MDA-N
NCI-H460 = tested on: NCI-H460
T47D = tested on: T47D
HCT-15 = tested on: HCT-15
LOX IMVI = tested on: LOX IMVI
MOLT-4 = tested on: MOLT-4
MCF7 = tested on: MCF7
SR = tested on: SR
SF-539 = tested on: SF-539
CCRF-CEM = tested on: CCRF-CEM

Structure (SMILES): CN(CCc1ccc(N)cc1)[C@H]1CCCC[C@H]1N1CCCC1
- GI50 (Malme-3M): > 100 µM (inactive)
- GI50 (IGROV-1): > 100 µM (inactive)
- GI50 (OVCAR-8): > 100 µM (inactive)
- GI50 (OVCAR-4): > 100 µM (inactive)
- GI50 (PC-3): > 100 µM (inactive)
- GI50 (HOP-92): > 100 µM (inactive)
- GI50 (EKVX): > 100 µM (inactive)
- GI50 (786-0): > 100 µM (inactive)
- GI50 (BT-549): > 100 µM (inactive)
- GI50 (SK-MEL-28): > 100 µM (inactive)
- GI50 (DU-145): > 100 µM (inactive)
- GI50 (NCI/ADR-RES): > 100 µM (inactive)
- GI50 (A549): > 100 µM (inactive)
- GI50 (HT-29): 78.2 µM (inactive)
- GI50 (HCC 2998): 51.9 µM (inactive)
- GI50 (SN12C): > 100 µM (inactive)
- GI50 (NCI-H226): > 100 µM (inactive)
- GI50 (SF-268): > 100 µM (inactive)
- GI50 (OVCAR-3): > 100 µM (inactive)
- GI50 (NCI-H23): > 100 µM (inactive)
- GI50 (RXF 393): > 100 µM (inactive)
- GI50 (A498): > 100 µM (inactive)
- GI50 (UO-31): > 100 µM (inactive)
- GI50 (KM12): > 100 µM (inactive)
- GI50 (NCI-H522): > 100 µM (inactive)
- GI50 (SF-295): > 100 µM (inactive)
- GI50 (RPMI-8226): 66.7 µM (inactive)
- GI50 (COLO 205): > 100 µM (inactive)
- GI50 (K562): 70.3 µM (inactive)
- GI50 (SW-620): > 100 µM (inactive)
- GI50 (MDA-MB-231): > 100 µM (inactive)
- GI50 (SK-MEL-5): > 100 µM (inactive)
- GI50 (OVCAR-5): > 100 µM (inactive)
- GI50 (SNB-75): > 100 µM (inactive)
- GI50 (TK-10): > 100 µM (inactive)
- GI50 (MDA-MB-435): > 100 µM (inactive)
- GI50 (U-251): > 100 µM (inactive)
- GI50 (SNB-19): > 100 µM (inactive)
- GI50 (CAKI-1): > 100 µM (inactive)
- GI50 (SK-MEL-2): > 100 µM (inactive)
- GI50 (HCT-116): > 100 µM (inactive)
- GI50 (Hs-578T): > 100 µM (inactive)
- GI50 (SK-OV-3): > 100 µM (inactive)
- GI50 (HOP-62): > 100 µM (inactive)
- GI50 (UACC-257): > 100 µM (inactive)
- GI50 (ACHN): > 100 µM (inactive)
- GI50 (M14): > 100 µM (inactive)
- GI50 (UACC-62): > 100 µM (inactive)
- GI50 (HL-60): > 100 µM (inactive)
- GI50 (MDA-N): > 100 µM (inactive)
- GI50 (NCI-H460): > 100 µM (inactive)
- GI50 (T47D): > 100 µM (inactive)
- GI50 (HCT-15): > 100 µM
- GI50 (LOX IMVI): > 100 µM (inactive)
- GI50 (MOLT-4): 98.4 µM (inactive)
- GI50 (MCF7): > 100 µM (inactive)

Structure (SMILES): COC(=O)Oc1nn(C(=O)OC)c(=O)c2ccccc12
- GI50 (Malme-3M): 42.4 µM (inactive)
- GI50 (IGROV-1): > 100 µM (inactive)
- GI50 (OVCAR-8): > 100 µM (inactive)
- GI50 (SR): > 100 µM (inactive)
- GI50 (PC-3): > 100 µM (inactive)
- GI50 (EKVX): > 100 µM (inactive)
- GI50 (786-0): > 100 µM (inactive)
- GI50 (BT-549): > 100 µM (inactive)
- GI50 (SK-MEL-28): > 100 µM (inactive)
- GI50 (DU-145): > 100 µM (inactive)
- GI50 (NCI/ADR-RES): > 100 µM (inactive)
- GI50 (A549): > 100 µM (inactive)
- GI50 (HCC 2998): 59.8 µM (inactive)
- GI50 (SN12C): > 100 µM (inactive)
- GI50 (NCI-H226): > 100 µM (inactive)
- GI50 (SF-268): > 100 µM (inactive)
- GI50 (OVCAR-3): > 100 µM (inactive)
- GI50 (NCI-H23): > 100 µM (inactive)
- GI50 (SF-539): 61.8 µM (inactive)
- GI50 (UO-31): > 100 µM (inactive)
- GI50 (KM12): > 100 µM (inactive)
- GI50 (NCI-H522): > 100 µM (inactive)
- GI50 (SF-295): > 100 µM (inactive)
- GI50 (RPMI-8226): > 100 µM (inactive)
- GI50 (COLO 205): 85.1 µM (inactive)
- GI50 (K562): > 100 µM (inactive)
- GI50 (SW-620): > 100 µM (inactive)
- GI50 (MDA-MB-231): 95.3 µM (inactive)
- GI50 (SK-MEL-5): > 100 µM (inactive)
- GI50 (OVCAR-5): > 100 µM (inactive)
- GI50 (SNB-75): 54.5 µM (inactive)
- GI50 (TK-10): > 100 µM (inactive)
- GI50 (CCRF-CEM): > 100 µM (inactive)
- GI50 (MDA-MB-435): > 100 µM (inactive)
- GI50 (U-251): > 100 µM (inactive)
- GI50 (SNB-19): > 100 µM (inactive)
- GI50 (CAKI-1): > 100 µM (inactive)
- GI50 (SK-MEL-2): > 100 µM (inactive)
- GI50 (HCT-116): > 100 µM (inactive)
- GI50 (Hs-578T): 65.8 µM (inactive)
- GI50 (SK-OV-3): > 100 µM (inactive)
- GI50 (HOP-62): > 100 µM (inactive)
- GI50 (UACC-257): > 100 µM (inactive)
- GI50 (ACHN): > 100 µM (inactive)
- GI50 (M14): > 100 µM (inactive)
- GI50 (UACC-62): > 100 µM (inactive)
- GI50 (HL-60): > 100 µM (inactive)
- GI50 (MDA-N): > 100 µM (inactive)
- GI50 (T47D): 74.5 µM (inactive)
- GI50 (HCT-15): > 100 µM
- GI50 (LOX IMVI): > 100 µM (inactive)
- GI50 (MOLT-4): > 100 µM (inactive)
- GI50 (MCF7): > 100 µM (inactive)

Structure (SMILES): CC(=O)Oc1ccc2c(c1)O/C(=C\c1ccc(N(C)C)cc1)C2=O
- GI50 (IGROV-1): > 100 µM (inactive)
- GI50 (OVCAR-8): > 100 µM (inactive)
- GI50 (OVCAR-4): 75.2 µM (inactive)
- GI50 (SR): 37.2 µM (inactive)
- GI50 (PC-3): > 100 µM (inactive)
- GI50 (EKVX): > 100 µM (inactive)
- GI50 (786-0): > 100 µM (inactive)
- GI50 (BT-549): 68.4 µM (inactive)
- GI50 (SK-MEL-28): > 100 µM (inactive)
- GI50 (DU-145): > 100 µM (inactive)
- GI50 (NCI/ADR-RES): 29.6 µM (inactive)
- GI50 (A549): > 100 µM (inactive)
- GI50 (HT-29): > 100 µM (inactive)
- GI50 (HCC 2998): > 100 µM (inactive)
- GI50 (SN12C): 62.7 µM (inactive)
- GI50 (NCI-H226): > 100 µM (inactive)
- GI50 (SF-268): > 100 µM (inactive)
- GI50 (NCI-H23): > 100 µM (inactive)
- GI50 (SF-539): 26.4 µM (inactive)
- GI50 (RXF 393): 73.5 µM (inactive)
- GI50 (UO-31): 26.3 µM (inactive)
- GI50 (KM12): 90.8 µM (inactive)
- GI50 (NCI-H522): 25.9 µM (inactive)
- GI50 (RPMI-8226): 54.6 µM (inactive)
- GI50 (COLO 205): > 100 µM (inactive)
- GI50 (K562): 27.9 µM (inactive)
- GI50 (SW-620): 52.2 µM (inactive)
- GI50 (MDA-MB-231): 68.5 µM (inactive)
- GI50 (SK-MEL-5): > 100 µM (inactive)
- GI50 (SNB-75): 87.9 µM (inactive)
- GI50 (TK-10): > 100 µM (inactive)
- GI50 (CCRF-CEM): 82.4 µM (inactive)
- GI50 (MDA-MB-435): 35.3 µM (inactive)
- GI50 (U-251): 37.7 µM (inactive)
- GI50 (SNB-19): 53.8 µM (inactive)
- GI50 (CAKI-1): > 100 µM (inactive)
- GI50 (HCT-116): 85.5 µM (inactive)
- GI50 (Hs-578T): 21 µM (inactive)
- GI50 (SK-OV-3): > 100 µM (inactive)
- GI50 (HOP-62): > 100 µM (inactive)
- GI50 (UACC-257): > 100 µM (inactive)
- GI50 (ACHN): > 100 µM (inactive)
- GI50 (M14): > 100 µM (inactive)
- GI50 (UACC-62): > 100 µM (inactive)
- GI50 (HL-60): 32.7 µM (inactive)
- GI50 (MDA-N): 36.4 µM (inactive)
- GI50 (NCI-H460): 70.1 µM (inactive)
- GI50 (T47D): > 100 µM (inactive)
- GI50 (HCT-15): 67 µM
- GI50 (MOLT-4): 47.1 µM (inactive)
- GI50 (MCF7): > 100 µM (inactive)
